Test results: PubChem BioAssay AID330 (DTP/NCI, 2004)
“And” between values parts separate entries of the source, which are not always exact repeats. Identical values can stand only once. Toxic doses and inconclusive results are not listed. How the source made its calls: active means survival T/C of 150% or more; inactive means T/C below 125% in these data.

Tested on: P388 leukemia ip, CD2F1 mice, survival T/C
Assay: NCI In Vivo Anticancer Drug Screen. Data for tumor model P388 Leukemia (intraperitoneal) in CD2F1 (CDF1) mice
Details: endpoint: median survival time, higher = longer survival
Procedure, shortened: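 Mice carrying the transplanted tumor received test compound or vehicle. Survival was recorded in each group, and the value is the treated-group measurement divided by that of the vehicle-treated control group.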

[1] = dose: 12.5 mg/kg/injection, schedule: Q01DX009 (ip), vehicle: saline with Tween-80
[2] = dose: 25.0 mg/kg/injection, schedule: Q01DX009 (ip), vehicle: saline with Tween-80
[3] = dose: 100.0 mg/kg/injection, schedule: Q01DX001 (ip), vehicle: Klucel (hydroxypropylcellulose) (HPC)
[4] = dose: 200.0 mg/kg/injection, schedule: Q01DX001 (ip), vehicle: Klucel (hydroxypropylcellulose) (HPC)
[5] = dose: 50.0 mg/kg/injection, schedule: Q01DX009 (ip), vehicle: saline with Tween-80
[6] = dose: 100.0 mg/kg/injection, schedule: Q01DX009 (ip), vehicle: saline with Tween-80
[7] = dose: 200.0 mg/kg/injection, schedule: Q01DX009 (ip), vehicle: saline with Tween-80
[8] = dose: 25.0 mg/kg/injection, schedule: Q01DX005 (ip), vehicle: Klucel (hydroxypropylcellulose) (HPC)
[9] = dose: 50.0 mg/kg/injection, schedule: Q01DX005 (ip), vehicle: Klucel (hydroxypropylcellulose) (HPC)
[10] = dose: 100.0 mg/kg/injection, schedule: Q01DX005 (ip), vehicle: Klucel (hydroxypropylcellulose) (HPC)
[11] = dose: 200.0 mg/kg/injection, schedule: Q01DX005 (ip), vehicle: Klucel (hydroxypropylcellulose) (HPC)
[12] = dose: 30.0 mg/kg/injection, schedule: Q01DX005 (ip), vehicle: Klucel (hydroxypropylcellulose) (HPC)
[13] = dose: 60.0 mg/kg/injection, schedule: Q01DX005 (ip), vehicle: Klucel (hydroxypropylcellulose) (HPC)
[14] = dose: 120.0 mg/kg/injection, schedule: Q01DX005 (ip), vehicle: Klucel (hydroxypropylcellulose) (HPC)
[15] = dose: 240.0 mg/kg/injection, schedule: Q01DX005 (ip), vehicle: Klucel (hydroxypropylcellulose) (HPC)
[16] = dose: 60.0 mg/kg/injection, schedule: Q01DX005 (ip), vehicle: saline with Tween-80
[17] = dose: 50.0 mg/kg/injection, schedule: Q01DX005 (ip), vehicle: saline with Tween-80
[18] = dose: 100.0 mg/kg/injection, schedule: Q01DX005 (ip), vehicle: saline with Tween-80
[19] = dose: 50.0 mg/kg/injection, schedule: Q01DX005 (ip), vehicle: saline

Measured: T/C

NP(=O)(Oc1ccccc1)Oc1ccccc1
inactive: dose: 6.23 mg/kg/injection, schedule: Q01DX009 (ip), vehicle: saline with Tween-80 95 % of control | [1] 100 % of control | [2] 95 % of control

O=C1C2(Cl)C3CCC4C5CCC3C1(Cl)C5(Cl)C42Cl (stereo not given)
inactive: dose: 100.0 mg/kg/injection, schedule: Q04DX002 (ip), vehicle: saline with Tween-80 107 % of control | dose: 200.0 mg/kg/injection, schedule: Q04DX002 (ip), vehicle: saline with Tween-80 100 % of control

c1cc2cc3c(cc2o1)OC[C@H]1c2cc4c(cc2O[C@@H]31)OCO4
inactive: [3] 91 % of control | [4] 87 % of control

c1ccc2sc(SSc3nc4ccccc4s3)nc2c1
inactive: [5] 110 % of control | [6] 108 % of control | [7] 104 % of control | dose: 400.0 mg/kg/injection, schedule: Q01DX009 (ip), vehicle: saline with Tween-80 109 % of control

O=C1C2CCCC1C(c1ccccc1)NC2c1ccccc1 (stereo not given)
inactive: [8] 104 % of control | [9] 102 % of control | [10] 96 % of control | [11] 98 % of control

O=c1[nH]c2c([N+](=O)[O-])cc(Cl)cc2nc1/C=C(\O)c1ccc(Cl)cc1
inactive: [12] 99 % of control | [13] 100 % of control | [14] 99 % of control and 108 % of control | [15] 105 % of control

Clc1ccc(N=Cc2c3ccccc3cc3ccccc23)c(Cl)c1
inactive: dose: 6.25 mg/kg/injection, schedule: Q01DX009 (ip), vehicle: saline with Tween-80 101 % of control | [1] 101 % of control | [2] 93 % of control

COc1cccc2c1C(=O)c1c(O)c(CCl)cc(OC)c1C2=O
inactive: dose: 7.5 mg/kg/injection, schedule: Q01DX005 (ip), vehicle: saline with Tween-80 108 % of control | dose: 15.0 mg/kg/injection, schedule: Q01DX005 (ip), vehicle: saline with Tween-80 117 % of control | dose: 30.0 mg/kg/injection, schedule: Q01DX005 (ip), vehicle: saline with Tween-80 114 % of control | [16] 101 % of control

Cc1ccc(C2=C3CCCCC3c3cc(C)ccc32)cc1 (stereo not given)
inactive: [8] 91 % of control | [9] 97 % of control | [10] 90 % of control | [11] 90 % of control

COc1ccc(C2OC3=C(Nc4ccc(Cl)cc4N3)C2=O)cc1 (stereo not given)
inactive: [12] 98 % of control | [13] 94 % of control | [14] 93 % of control and 97 % of control | [15] 98 % of control

c1ccc2c(c1)C1OC2c2ccccc21
inactive: [9] 99 % of control | [10] 108 % of control | [11] 100 % of control

CN(C)c1ccc(Cc2ccc(N(C)C)nc2)cn1
inactive: [17] 109 % of control | [18] 110 % of control

O=S(=O)(NCCSSCCNS(=O)(=O)c1ccccc1)c1ccccc1
inactive: dose: 25.0 mg/kg/injection, schedule: Q01DX009 (ip), vehicle: other 96 % of control | dose: 50.0 mg/kg/injection, schedule: Q01DX009 (ip), vehicle: other 98 % of control and 105 % of control | dose: 100.0 mg/kg/injection, schedule: Q01DX009 (ip), vehicle: other 110 % of control | dose: 200.0 mg/kg/injection, schedule: Q01DX009 (ip), vehicle: other 103 % of control and 90 % of control

COC(=O)C1=C/C=C\CN/C=C\1C(=O)OC
inactive: dose: 100.0 mg/kg/injection, schedule: Q04DX003 (ip), vehicle: alcohol 97 % of control | dose: 200.0 mg/kg/injection, schedule: Q04DX003 (ip), vehicle: alcohol 97 % of control | dose: 400.0 mg/kg/injection, schedule: Q04DX003 (ip), vehicle: alcohol 106 % of control

CCCCCCCC/C=C\CCCCCCCC(=O)OC/C=C/COC(=O)c1ccccc1
inactive: dose: 100.0 mg/kg/injection, schedule: Q04DX003 (ip), vehicle: Klucel (hydroxypropylcellulose) (HPC) 106 % of control | dose: 200.0 mg/kg/injection, schedule: Q04DX003 (ip), vehicle: Klucel (hydroxypropylcellulose) (HPC) 99 % of control | dose: 400.0 mg/kg/injection, schedule: Q04DX003 (ip), vehicle: Klucel (hydroxypropylcellulose) (HPC) 106 % of control

COc1cc(NC(=O)CNC(=O)CNC(=O)C(N)CC(C)C)cc2ccccc12 (stereo not given)
inactive: [9] 100 % of control | [10] 96 % of control | [11] 100 % of control

c1ccc(CON(CCc2ccncc2)CCc2ccncc2)cc1
inactive: [19] 97 % of control | dose: 100.0 mg/kg/injection, schedule: Q01DX005 (ip), vehicle: saline 103 % of control | dose: 200.0 mg/kg/injection, schedule: Q01DX005 (ip), vehicle: saline 101 % of control

Nc1nc2c(ccc3ccccc32)s1
inactive: [2] 115 % of control | [5] 102 % of control and 108 % of control and 97 % of control | [6] 100 % of control and 110 % of control and 93 % of control | [7] 103 % of control and 108 % of control and 93 % of control

CN(C)C(=S)Oc1ccccc1C1SCCS1
inactive: [17] 101 % of control | [18] 99 % of control | dose: 200.0 mg/kg/injection, schedule: Q01DX005 (ip), vehicle: saline with Tween-80 105 % of control

Nc1ccccc1CN1C(=O)CCC1=O
inactive: dose: 50.0 mg/kg/injection, schedule: Q01DX009 (ip), vehicle: saline 105 % of control | dose: 100.0 mg/kg/injection, schedule: Q01DX009 (ip), vehicle: saline 101 % of control | dose: 200.0 mg/kg/injection, schedule: Q01DX009 (ip), vehicle: saline 99 % of control

O=C1CCC(=O)C1
inactive: dose: 60.0 mg/kg/injection, schedule: Q01DX005 (ip), vehicle: saline 100 % of control | dose: 120.0 mg/kg/injection, schedule: Q01DX005 (ip), vehicle: saline 93 % of control | dose: 240.0 mg/kg/injection, schedule: Q01DX005 (ip), vehicle: saline 105 % of control

O=C(Oc1ccccc1)OC1CCCN(C(=O)Oc2ccccc2)C1 (stereo not given)
inactive: dose: 50.0 mg/kg/injection, schedule: Q01DX009 (ip), vehicle: Klucel (hydroxypropylcellulose) (HPC) 93 % of control | dose: 100.0 mg/kg/injection, schedule: Q01DX009 (ip), vehicle: Klucel (hydroxypropylcellulose) (HPC) 93 % of control | dose: 200.0 mg/kg/injection, schedule: Q01DX009 (ip), vehicle: Klucel (hydroxypropylcellulose) (HPC) 93 % of control

O=C(Cn1nnc2ccccc21)N1CCN(c2ccccc2)CC1
inactive: [16] 90 % of control | dose: 120.0 mg/kg/injection, schedule: Q01DX005 (ip), vehicle: saline with Tween-80 87 % of control

c1ccc2c(c1)N=Nc1ccccc1OCCOCCOCCO2
inactive: dose: 25.0 mg/kg/injection, schedule: Q01DX001 (ip), vehicle: saline with Tween-80 103 % of control | dose: 50.0 mg/kg/injection, schedule: Q01DX001 (ip), vehicle: saline with Tween-80 102 % of control | dose: 100.0 mg/kg/injection, schedule: Q01DX001 (ip), vehicle: saline with Tween-80 92 % of control

CN(C)C1CS(=O)(=O)C1c1ccccc1 (stereo not given)
inactive: [1] 100 % of control and 110 % of control | [2] 110 % of control and 95 % of control | [5] 112 % of control and 95 % of control | [6] 102 % of control and 103 % of control and 97 % of control | [7] 102 % of control

COc1c2ccccc2c(C)c2ccc3ccccc3c12
inactive: [3] 107 % of control | [4] 111 % of control

CC[n+]1c(C)sc2ccccc21
inactive: dose: 25.0 mg/kg/injection, schedule: Q01DX005 (ip), vehicle: saline 91 % of control | [19] 94 % of control
